Source: patent US7547690B2, “Compounds for the treatment of Hepatitis C” (Bristol-Myers Squibb Company, priority 2007, dated 2009)
pEC50, pIC50: −log10 of the molar value. Where two headings read alike, the source gives them in different places.

Assays:
HCV NS5B = target: T1, HCV NS5B (Hepatitis C virus genotype 1b, UniProt Q9WMX2); experiment: HCV NS5B RdRp enzyme assay (standard / modified); type: biochemical; details: standard or modified assay not specified
T1 construct: The protein was expressed with an 18 amino acid C-terminal truncation to enhance the solubility; made in house; host or cells: E. coli BL21(DE3)
T1 sequence (Q9WMX2 2420-2992): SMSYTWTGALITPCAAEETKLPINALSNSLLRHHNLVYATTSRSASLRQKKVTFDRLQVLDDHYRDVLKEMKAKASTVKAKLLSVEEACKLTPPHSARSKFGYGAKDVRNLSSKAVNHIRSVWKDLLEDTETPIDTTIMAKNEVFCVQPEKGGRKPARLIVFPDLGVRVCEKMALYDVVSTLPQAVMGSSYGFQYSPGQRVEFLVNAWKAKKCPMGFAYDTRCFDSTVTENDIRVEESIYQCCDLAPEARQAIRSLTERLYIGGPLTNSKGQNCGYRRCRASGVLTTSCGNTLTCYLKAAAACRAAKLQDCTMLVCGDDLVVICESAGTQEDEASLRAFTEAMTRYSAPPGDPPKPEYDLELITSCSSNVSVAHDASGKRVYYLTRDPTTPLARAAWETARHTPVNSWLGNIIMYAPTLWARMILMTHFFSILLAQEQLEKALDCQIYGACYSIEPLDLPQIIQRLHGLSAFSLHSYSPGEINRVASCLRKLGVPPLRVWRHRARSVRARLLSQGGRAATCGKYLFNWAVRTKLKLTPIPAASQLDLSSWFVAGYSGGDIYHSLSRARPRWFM
Summary of the method: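 Genotype 1b NS5B, 18-aa C-terminal truncation, E. coli-expressed; polyA template with biotin-oligo-dT12 primer, 3H-UTP (0.29 μM UTP), pH 7.5 Hepes, 2% DMSO, 30 °C, SPA read. Standard: 28 nM enzyme, 6 nM template, 180 nM primer, 60 min. Modified: 1.75 nM enzyme, 0.36 nM template, 20 nM bead-precaptured primer, 4 h; IC50 from seven concentrations, four-parameter fit.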

HCV replicon cells = experiment: HCV replicon FRET / luciferase assay; type: cell-based
Summary of the method: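 HCV replicon cells (with or without Renilla luciferase reporter) incubated with titrated compounds at 37° C; cytotoxicity read by Alamar blue. Replicon activity then read by NS3 cleavage of EDANS/DABCYL FRET peptide (20 μM final, 340/490 nm kinetic) or by luciferase; background from highest control-inhibitor wells subtracted; EC50 = concentration giving 50% signal reduction.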

[1] = HCV RdRp genotype 1b, read-out: IC50
[2] = Hepatitis C virus, 50% reduction in FRET or luciferase activity in HCV replicon cells, read-out: EC50
[3] = 50% reduction in FRET or luciferase activity in HCV replicon cells, read-out: EC50

**Q.** `CCN1C[C@H]2C[C@@H]1CN2C(=O)C12CC1c1cc(OC)ccc1-c1c(C3CCCCC3)c3ccc(C(=O)NS(=O)(=O)C4CC4)cc3n1C2` (stereo partly shown) [drawing 43] was tested. Which pIC50 (HCV NS5B; [1]) did it give?
**A.** > 7.70

**Q.** What about the pEC50 (HCV replicon cells; [2]) of the same compound?
**A.** 6.30 to 8.62

**Q.** With `CCN1C[C@H]2C[C@@H]1CN2C(=O)C12CC1c1cc(OC)ccc1-c1c(C3CCCCC3)c3ccc(C(=O)NS(=O)(=O)C4CC4)cc3n1C2` (stereo partly shown) [drawing 44] as the compound, how does the pIC50 (HCV NS5B; [1]) read?
**A.** 6.30 to 8.62

**Q.** And the pEC50 (HCV replicon cells; [3])?
**A.** 6.30 to 8.62

**Q.** `COc1ccc2c(c1)C1CC1(C(=O)N1CCN3CCC1CC3)Cn1c-2c(C2CCCCC2)c2ccc(C(=O)NS(=O)(=O)C3CC3)cc21` (stereo not shown) [drawing 50] was tested. Which pIC50 (HCV NS5B; [1]) did it give?
**A.** 6.30 to 8.62

**Q.** What about the pEC50 (HCV replicon cells; [2]) of the same compound?
**A.** 6.30 to 8.62

**Q.** Which results are given for `COc1ccc2c(c1)C1CC1(C(=O)N1C[C@@H]3C[C@H]1CN3C)Cn1c-2c(C2CCCCC2)c2ccc(C(=O)NS(=O)(=O)C3CC3)cc21` (stereo partly shown) [drawing 51]?
**A.** pIC50 (HCV NS5B; [1]): 6.30 to 8.62; pEC50 (HCV replicon cells; [3]): < 6.30

**Q.** What does the source list for `COc1ccc2c(c1)C1CC1(C(=O)N1C[C@@H]3C[C@H]1CN3C)Cn1c-2c(C2CCCCC2)c2ccc(C(=O)NS(=O)(=O)C3CC3)cc21` (stereo partly shown) [drawing 53]?
**A.** pIC50 (HCV NS5B; [1]): 6.30 to 8.62; pEC50 (HCV replicon cells; [3]): 6.30 to 8.62

**Q.** How did the pIC50 (HCV NS5B; [1]) turn out when `COc1ccc2c(c1)C1CC1(C(=O)N1CCN3CCC1CC3)Cn1c-2c(C2CCCCC2)c2ccc(C(=O)NS(=O)(=O)C3CC3)cc21` (stereo not shown) [drawing 71] was run?
**A.** 6.30 to 8.62

**Q.** What about the pEC50 (HCV replicon cells; [3]) of the same compound?
**A.** 6.30 to 8.62

**Q.** What does the source list for `COc1ccc2c(c1)C1CC1(C(=O)N1C[C@@H]3C[C@H]1CN3C)Cn1c-2c(C2CCCCC2)c2ccc(C(=O)NS(=O)(=O)C3CC3)cc21` (stereo partly shown) [drawing 72]?
**A.** pIC50 (HCV NS5B; [1]): > 7.70; pEC50 (HCV replicon cells; [2]): 6.30 to 8.62

**Q.** With `COc1ccc2c(c1)C1CC1(C(=O)N1C[C@@H]3C[C@H]1CN3CC(C)C)Cn1c-2c(C2CCCCC2)c2ccc(C(=O)NS(=O)(=O)C(C)C)cc21` (stereo partly shown) [drawing 94] as the compound, how does the pIC50 (HCV NS5B; [1]) read?
**A.** 6.30 to 8.62

**Q.** And the pEC50 (HCV replicon cells; [2])?
**A.** 6.30 to 8.62

**Q.** What does the source list for `COc1ccc2c(c1)C1CC1(C(=O)N1C[C@@H]3C[C@H]1CN3CC(C)C)Cn1c-2c(C2CCCCC2)c2ccc(C(=O)NS(=O)(=O)C(C)C)cc21` (stereo partly shown) [drawing 95]?
**A.** pIC50 (HCV NS5B; [1]): 6.30 to 8.62; pEC50 (HCV replicon cells; [3]): 6.30 to 8.62

**Q.** With `COc1ccc2c(c1)[C@@H]1C[C@]1(C(=O)N1C3CCC1C1CCC3N1C)Cn1c-2c(C2CCCCC2)c2ccc(C(=O)NS(=O)(=O)N(C)C)cc21` [drawing 160] as the compound, how does the pIC50 (HCV NS5B; IC50, HCV RdRp genotype 1b) read?
**A.** 6.30 to 8.62

**Q.** What about the pEC50 (HCV replicon cells; Hepatitis C virus) of the same compound?
**A.** 6.30 to 8.62

**Q.** `COc1ccc2c(c1)[C@@H]1C[C@]1(C(=O)N1C3CCC1C1CCC3N1C)Cn1c-2c(C2CCCCC2)c2ccc(C(=O)NS(=O)(=O)N(C)C)cc21` [drawing 161] was tested. Which pIC50 (HCV NS5B; HCV RdRp genotype 1b) did it give?
**A.** 6.30 to 8.62

**Q.** What about the pEC50 (HCV replicon cells; 50% reduction in FRET or luciferase activity in HCV replicon cells) of the same compound?
**A.** 6.30 to 8.62
